In PubChem BioAssay AID208 (DTP/NCI, 2004):
Several values for one entry are separate records, joined by “and”; a condition that tells them apart may be missing. Equal values may be shown once. Results filed as inconclusive are left out.

Test system: HT29 intrarenal xenograft, nude mice, tumor weight change
Assay: NCI In Vivo Anticancer Drug Screen. Data for tumor model HT29;CX-1 Human Adenocarcinoma (MER+) (intrarenal inoculation) in NU/NU BALB/C (nude) mice
Details: endpoint: mean tumor weight change, higher = larger tumour
Procedure: The antitumor activity of compounds was measured in mice bearing transplantable tumors. Survival or tumor size were measured and the results are expressed as the measurement made in the treated group (T) divided by the measurement made in the vehicle treated control group (C). The tumor model used in this assay is HT29;CX-1 Human Adenocarcinoma (MER+) (intrarenal inoculation) in NU/NU BALB/C (nude) mice

[1] = dose: 3.0 mg/kg/injection, schedule: Q04DX004 (sc), vehicle: saline
[2] = dose: 6.0 mg/kg/injection, schedule: Q04DX004 (sc), vehicle: saline
[3] = dose: 600.0 mg/kg/injection, schedule: Q04DX004 (sc), vehicle: Klucel (hydroxypropylcellulose) (HPC)
[4] = dose: 600.0 mg/kg/injection, schedule: Q04DX004 (sc), vehicle: saline with Tween-80
[5] = dose: 1200.0 mg/kg/injection, schedule: Q04DX004 (sc), vehicle: saline with Tween-80
[6] = dose: 2400.0 mg/kg/injection, schedule: Q04DX004 (sc), vehicle: saline with Tween-80
[7] = dose: 150.0 mg/kg/injection, schedule: Q04DX004 (sc), vehicle: saline
[8] = dose: 300.0 mg/kg/injection, schedule: Q04DX004 (sc), vehicle: saline
[9] = dose: 600.0 mg/kg/injection, schedule: Q04DX004 (sc), vehicle: saline
[10] = dose: 50.0 mg/kg/injection, schedule: Q04DX004 (sc), vehicle: saline with Tween-80
[11] = dose: 100.0 mg/kg/injection, schedule: Q04DX004 (sc), vehicle: saline with Tween-80
[12] = dose: 200.0 mg/kg/injection, schedule: Q04DX004 (sc), vehicle: saline with Tween-80
[13] = dose: 400.0 mg/kg/injection, schedule: Q04DX004 (sc), vehicle: saline with Tween-80

## CO[C@@]12[C@H](COC(N)=O)C3=C(C(=O)C(C)=C(N)C3=O)N1C[C@@H]1N[C@@H]12
dose: 1.5 mg/kg/injection, schedule: Q04DX004 (sc), vehicle: saline
  T/C: 47 % of control and 52 % of control and 71 % of control
[1]
  T/C: -35 % of control and -23 % of control and -13 % of control
[2]
  T/C: -86 % of control

## O=C1N[C@H]2[C@H](CS[C@H]2CCCCC(=O)N(CCP(c2ccccc2)c2ccccc2)CCP(c2ccccc2)c2ccccc2)N1
dose: 150.0 mg/kg/injection, schedule: Q04DX004 (sc), vehicle: Klucel (hydroxypropylcellulose) (HPC)
  T/C: 121 % of control
[3]
  T/C: 86 % of control

## COC(=O)Nc1nc2ccc(SC)cc2c(=O)[nH]1
dose: 300.0 mg/kg/injection, schedule: Q04DX004 (sc), vehicle: Klucel (hydroxypropylcellulose) (HPC)
  T/C: 122 % of control
[3]
  T/C: 95 % of control
dose: 1200.0 mg/kg/injection, schedule: Q04DX004 (sc), vehicle: Klucel (hydroxypropylcellulose) (HPC)
  T/C: 48 % of control
dose: 2400.0 mg/kg/injection, schedule: Q04DX004 (sc), vehicle: Klucel (hydroxypropylcellulose) (HPC)
  T/C: 37 % of control

## CN(C)CCOc1ccc2c(c1)C/C(=C/c1ncc([N+](=O)[O-])n1C)C2=O
dose: 300.0 mg/kg/injection, schedule: Q04DX004 (sc), vehicle: saline with Tween-80
  T/C: 89 % of control
[4]
  T/C: 33 % of control
[5]
  T/C: 69 % of control
[6]
  T/C: 65 % of control

## C[C@]12CC[C@H](O)CC1=CC[C@@H]1[C@@H]2CC[C@]2(C)C(=O)CC[C@@H]12
[6]
  T/C: 73 % of control

## C[N+](C)(C)c1ncnc2nc[nH]c12
dose: 50.0 mg/kg/injection, schedule: Q01DX010 (sc), vehicle: saline
  T/C: 111 % of control
dose: 100.0 mg/kg/injection, schedule: Q01DX010 (sc), vehicle: saline
  T/C: 83 % of control
dose: 200.0 mg/kg/injection, schedule: Q01DX010 (sc), vehicle: saline
  T/C: 29 % of control

## CCC1=C[C@H]2CN(CCc3c([nH]c4ccccc34)[C@@](C(=O)OC)(c3cc4c(cc3OC)N(C)[C@H]3[C@@](O)(C(=O)OC)[C@H](OC(C)=O)[C@]5(CC)C=CCN6CC[C@]43[C@@H]65)C2)C1
dose: 0.38 mg/kg/injection, schedule: Q04DX004 (sc), vehicle: water
  T/C: 116 % of control
dose: 0.75 mg/kg/injection, schedule: Q04DX004 (sc), vehicle: water
  T/C: 159 % of control
dose: 1.5 mg/kg/injection, schedule: Q04DX004 (sc), vehicle: water
  T/C: 118 % of control
dose: 3.0 mg/kg/injection, schedule: Q04DX004 (sc), vehicle: water
  T/C: 40 % of control
dose: 6.0 mg/kg/injection, schedule: Q04DX004 (sc), vehicle: water
  T/C: 100 % of control
dose: 12.0 mg/kg/injection, schedule: Q04DX004 (sc), vehicle: water
  T/C: 66 % of control

## O=C1CCC(=O)N1CO
[7]
  T/C: 66 % of control
[8]
  T/C: 80 % of control
[9]
  T/C: 74 % of control

## OC1(CSc2ccccc2)CCCCC1
[5]
  T/C: 65 % of control
[6]
  T/C: 68 % of control

## COc1cc(C(C)(C)C)cc(OC)c1C(O)(c1c(OC)cc(C(C)(C)C)cc1OC)c1c(OC)cc(C(C)(C)C)cc1OC
[10]
  T/C: 51 % of control
[11]
  T/C: 79 % of control
[12]
  T/C: 63 % of control
[13]
  T/C: 68 % of control
[4]
  T/C: 102 % of control
[5]
  T/C: 80 % of control
[6]
  T/C: 61 % of control

## c1ccc2c(NCCCCCCNc3c4ccccc4nc4ccccc34)c3ccccc3nc2c1
dose: 5.0 mg/kg/injection, schedule: Q01DX010 (sc), vehicle: Klucel (hydroxypropylcellulose) (HPC)
  T/C: 154 % of control
dose: 10.0 mg/kg/injection, schedule: Q01DX010 (sc), vehicle: Klucel (hydroxypropylcellulose) (HPC)
  T/C: 88 % of control

## COc1cc(O)c2c(O)c3c(c4c2c1[C@]1(C4)C(C)=CCCC1(C)C)[C@H](O)[C@@]1(O)CC(=O)C(C(N)=O)=C(O)[C@@]1(O)C3=O
dose: 9.4 mg/kg/injection, schedule: Q04DX004 (ip), vehicle: saline with Tween-80
  T/C: 59 % of control
dose: 18.8 mg/kg/injection, schedule: Q04DX004 (ip), vehicle: saline with Tween-80
  T/C: 87 % of control
dose: 37.5 mg/kg/injection, schedule: Q04DX004 (ip), vehicle: saline with Tween-80
  T/C: 101 % of control

## N#CC(=C1SCS1)[N+](=O)[O-]
[1]
  T/C: 69 % of control
[2]
  T/C: 113 % of control

## O=S(CCCl)CCCl
dose: 25.0 mg/kg/injection, schedule: Q04DX004 (sc), vehicle: Klucel (hydroxypropylcellulose) (HPC)
  T/C: 98 % of control
dose: 50.0 mg/kg/injection, schedule: Q04DX004 (sc), vehicle: Klucel (hydroxypropylcellulose) (HPC)
  T/C: 64 % of control

## COc1nc(=O)n(C2C=CC(=O)O2)cc1F (centres undefined)
dose: 75.0 mg/kg/injection, schedule: Q04DX004 (sc), vehicle: suspension in saline
  T/C: 52 % of control
dose: 150.0 mg/kg/injection, schedule: Q04DX004 (sc), vehicle: suspension in saline
  T/C: 122 % of control

## Cc1cc(N)c2ccccc2[n+]1CCCCCCCCCC[n+]1c(C)cc(N)c2ccccc21
dose: 0.38 mg/kg/injection, schedule: Q01DX010 (ip), vehicle: dextrose
  T/C: 101 % of control
dose: 0.75 mg/kg/injection, schedule: Q01DX010 (ip), vehicle: dextrose
  T/C: 101 % of control
dose: 1.5 mg/kg/injection, schedule: Q01DX010 (ip), vehicle: dextrose
  T/C: 81 % of control

## c1ccc2c(c1)[As]=c1ccccc1=[As]2 (centres undefined)
dose: 9.38 mg/kg/injection, schedule: Q04DX004 (sc), vehicle: saline
  T/C: 113 % of control
dose: 18.72 mg/kg/injection, schedule: Q04DX004 (sc), vehicle: saline
  T/C: 86 % of control
dose: 37.5 mg/kg/injection, schedule: Q04DX004 (sc), vehicle: saline
  T/C: 107 % of control
dose: 75.0 mg/kg/injection, schedule: Q04DX004 (sc), vehicle: saline
  T/C: 70 % of control

## O=[N+]([O-])c1nccn1CC(O)CO (centres undefined)
[8]
  T/C: 86 % of control
dose: 1200.0 mg/kg/injection, schedule: Q04DX004 (sc), vehicle: saline
  T/C: 81 % of control
dose: 2400.0 mg/kg/injection, schedule: Q04DX004 (sc), vehicle: saline
  T/C: 112 % of control

## CCOC(=O)c1ccc(NC(=O)Nc2nncs2)cc1
dose: 100.0 mg/kg/injection, schedule: Q01DX010 (sc), vehicle: distilled water + Tween-80
  T/C: 52 % of control
dose: 200.0 mg/kg/injection, schedule: Q01DX010 (sc), vehicle: distilled water + Tween-80
  T/C: 69 % of control
dose: 800.0 mg/kg/injection, schedule: Q01DX010 (sc), vehicle: distilled water + Tween-80
  T/C: 84 % of control

## O=c1c(O)c(-c2cc(O)c(O)c(O)c2)oc2cc(O)cc(O)c12
dose: 1.5 mg/kg/injection, schedule: Q04DX004 (sc), vehicle: saline with Tween-80
  T/C: 105 % of control
dose: 3.0 mg/kg/injection, schedule: Q04DX004 (sc), vehicle: saline with Tween-80
  T/C: 114 % of control
dose: 6.0 mg/kg/injection, schedule: Q04DX004 (sc), vehicle: saline with Tween-80
  T/C: 107 % of control
dose: 12.0 mg/kg/injection, schedule: Q04DX004 (sc), vehicle: saline with Tween-80
  T/C: 106 % of control
[10]
  T/C: 63 % of control
[11]
  T/C: 73 % of control
[12]
  T/C: 77 % of control
[13]
  T/C: 103 % of control

## OCCOCCN1CCN(CCCN2c3ccccc3Sc3ccc(C(F)(F)F)cc32)CC1
dose: 12.0 mg/kg/injection, schedule: Q01DX010 (sc), vehicle: saline
  T/C: 23 % of control
dose: 24.0 mg/kg/injection, schedule: Q01DX010 (sc), vehicle: saline
  T/C: 47 % of control
dose: 48.0 mg/kg/injection, schedule: Q01DX010 (sc), vehicle: saline
  T/C: 42 % of control

## CCOC(=O)C(N)CSC(=O)NC (centres undefined)
dose: 150.0 mg/kg/injection, schedule: Q04DX004 (ip), vehicle: saline
  T/C: 108 % of control
[7]
  T/C: 58 % of control
dose: 300.0 mg/kg/injection, schedule: Q04DX004 (ip), vehicle: saline
  T/C: 103 % of control
[8]
  T/C: 75 % of control
dose: 600.0 mg/kg/injection, schedule: Q04DX004 (ip), vehicle: saline
  T/C: 111 % of control
[9]
  T/C: 59 % of control

## Cc1cc(N(CC(C)Br)CC(C)Br)ccc1N=Nc1ccccc1C(=O)O (centres undefined)
dose: 3.13 mg/kg/injection, schedule: Q01DX010 (sc), vehicle: saline with Tween-80
  T/C: 65 % of control
dose: 6.25 mg/kg/injection, schedule: Q01DX010 (sc), vehicle: saline with Tween-80
  T/C: 55 % of control
dose: 12.5 mg/kg/injection, schedule: Q01DX010 (sc), vehicle: saline with Tween-80
  T/C: 57 % of control
